#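 Compound exposure: 48 hours, 5 concentrations, 96-well plates. GI50 marks 50% less growth.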 Calls of active or inactive are those of the source. Rule as the data show it: active = GI50 up to about 1.1 µM and inactive = higher.
# Experiments:
# Assay in all cases: DTP human tumour cell line panel, 48 h
# [1] = tested on: RPMI-8226
# [2] = tested on: HT-29
# [3] = tested on: NCI-H460
# [4] = tested on: DLD-1
# [5] = tested on: SK-MEL-2
# [6] = tested on: A549
# [7] = tested on: SF-539
# [8] = tested on: EKVX
# [9] = tested on: SK-OV-3
# [10] = tested on: UACC-257
# [11] = tested on: A498
# [12] = tested on: OVCAR-3
# [13] = tested on: HCT-116
# [14] = tested on: CCRF-CEM
# [15] = tested on: DU-145
# [16] = tested on: MDA-MB-435
# [17] = tested on: NCI/ADR-RES
# [18] = tested on: SK-MEL-5
# [19] = tested on: HCT-15
# [20] = tested on: Hs-578T
SMILES,GI50 [1],GI50 [2],GI50 [3],GI50 [4],GI50 [5],GI50 [6],GI50 [7],GI50 [8],GI50 [9],GI50 [10],GI50 [11],GI50 [12],GI50 [13],GI50 [14],GI50 [15],GI50 [16],GI50 [17],GI50 [18],GI50 [19] [µM],GI50 [20]
O=C1/C(=C/c2ccccc2Cl)COc2ccccc21,3.53 µM (inactive),19 µM (inactive),20.5 µM (inactive),15.3 µM (inactive),15.5 µM (inactive),22.6 µM (inactive),17.3 µM (inactive),16 µM (inactive),32.6 µM (inactive),15.1 µM (inactive),16.6 µM (inactive),18.2 µM (inactive),4.75 µM (inactive),4.73 µM (inactive),,,,,,
CCC1(O)C(=O)OCc2c1cc1n(c2=O)Cc2cc3ccc(C=O)cc3nc2-1 (stereo unspecified),2.79 µM (inactive),4.9 µM (inactive),0.493 µM (active),12.4 µM (inactive),13.4 µM (inactive),2.13 µM (inactive),0.551 µM (active),19.1 µM (inactive),2.2 µM (inactive),6.19 µM (inactive),4.06 µM (inactive),4.51 µM (inactive),1.34 µM (inactive),0.0431 µM (active),0.466 µM (active),7.18 µM (inactive),0.574 µM (active),1.83 µM (inactive),6.08,17.8 µM (inactive)
O=C(CC1=Nc2nnc(-c3nnc4n3C(=O)C(CC(=O)c3cccnc3)=N4)n2C1=O)c1cccnc1,> 100 µM (inactive),> 100 µM (inactive),> 100 µM (inactive),> 100 µM (inactive),> 100 µM (inactive),> 100 µM (inactive),> 100 µM (inactive),,> 100 µM (inactive),> 100 µM (inactive),> 100 µM (inactive),> 100 µM (inactive),> 100 µM (inactive),> 100 µM (inactive),,,,> 100 µM (inactive),> 100,
COc1ccc(CC(C)N)cc1 (stereo unspecified) [PARA-METHOXYAMPHETAMINE],> 100 µM (inactive),> 100 µM (inactive),> 100 µM (inactive),> 100 µM (inactive),> 100 µM (inactive),> 100 µM (inactive),> 100 µM (inactive),> 100 µM (inactive),> 100 µM (inactive),> 100 µM (inactive),> 100 µM (inactive),> 100 µM (inactive),> 100 µM (inactive),> 100 µM (inactive),,,,> 100 µM (inactive),> 100,
c1ccc2c3nc(C4CCCC4)nc-3c(NC3CCCC3)[nH]c2c1,21.2 µM (inactive),4.6 µM (inactive),8.04 µM (inactive),30 µM (inactive),14 µM (inactive),21 µM (inactive),15.3 µM (inactive),57.4 µM (inactive),32.1 µM (inactive),5.94 µM (inactive),21.3 µM (inactive),12.5 µM (inactive),5.66 µM (inactive),5.89 µM (inactive),,,,6.98 µM (inactive),8.49,
N#CCCN(CCC#N)c1ccc(/C=N\c2ccc(F)cc2)cc1,> 39.8 µM (inactive),,7.01 µM (inactive),0.347 µM (active),> 16.1 µM (inactive),43.1 µM (inactive),15.2 µM (inactive),> 100 µM (inactive),> 100 µM (inactive),> 100 µM (inactive),> 100 µM (inactive),> 79.1 µM (inactive),6.97 µM (inactive),20.8 µM (inactive),> 100 µM (inactive),17.3 µM (inactive),,14.5 µM (inactive),1.15,
CS(=O)(=O)N(CCC#N)c1ccc(/C=C2\N=C(c3ccccc3Cl)OC2=O)cc1,> 100 µM (inactive),> 100 µM (inactive),> 100 µM (inactive),> 100 µM (inactive),> 100 µM (inactive),> 100 µM (inactive),> 100 µM (inactive),> 100 µM (inactive),> 100 µM (inactive),> 100 µM (inactive),> 100 µM (inactive),> 100 µM (inactive),> 100 µM (inactive),> 100 µM (inactive),,,,> 100 µM (inactive),> 100,
Cc1cc(N(CCC#N)S(C)(=O)=O)ccc1C=O,> 100 µM (inactive),> 100 µM (inactive),> 100 µM (inactive),> 100 µM (inactive),> 100 µM (inactive),> 100 µM (inactive),> 100 µM (inactive),,> 100 µM (inactive),> 100 µM (inactive),> 100 µM (inactive),> 100 µM (inactive),> 100 µM (inactive),> 100 µM (inactive),,,,> 100 µM (inactive),> 100,
CCOC(=O)/N=c1\ss/c(=N\C(=S)N(C)C)n1-c1ccccc1,7.48 µM (inactive),3.17 µM (inactive),2.7 µM (inactive),> 10 µM (inactive),67.8 µM (inactive),1.11 µM (active),40.7 µM (inactive),> 100 µM (inactive),> 10 µM (inactive),> 10 µM (inactive),4.42 µM (inactive),0.394 µM (active),7.62 µM (inactive),29.6 µM (inactive),,,,2.62 µM (inactive),> 10,
CC1(C)O[C@H]2OC3CCC(=O)CC3(O)[C@H]2O1 (stereo partly specified),> 100 µM (inactive),> 100 µM (inactive),> 100 µM (inactive),> 100 µM (inactive),> 100 µM (inactive),> 100 µM (inactive),> 100 µM (inactive),> 100 µM (inactive),> 100 µM (inactive),> 100 µM (inactive),> 100 µM (inactive),> 100 µM (inactive),> 100 µM (inactive),> 100 µM (inactive),> 100 µM (inactive),> 100 µM (inactive),> 100 µM (inactive),> 100 µM (inactive),> 100,> 100 µM (inactive)
CCCC/C=C/C=C/C=C/CCCCCCCC(=O)OCC(COC(=O)CCCCCCC/C=C/C1C=CC(CCCC)C(C(=O)O)C1C(=O)O)OC(=O)CCCCCCC/C=C/C=C/C=C/CCCC.OCCNCO (stereo unspecified),3.78 µM (inactive),16.7 µM (inactive),33.8 µM (inactive),20 µM (inactive),15.8 µM (inactive),18.8 µM (inactive),19 µM (inactive),19 µM (inactive),23.7 µM (inactive),19.1 µM (inactive),15.3 µM (inactive),17.9 µM (inactive),17 µM (inactive),11.9 µM (inactive),,,,17.4 µM (inactive),16.2,
CCO[C@@H]1C2C=CC(C2)[C@H]1[N+](=O)[O-] (stereo partly specified),72.1 µM (inactive),> 100 µM (inactive),> 100 µM (inactive),> 100 µM (inactive),> 100 µM (inactive),> 100 µM (inactive),> 100 µM (inactive),> 100 µM (inactive),> 100 µM (inactive),> 100 µM (inactive),> 100 µM (inactive),> 100 µM (inactive),> 100 µM (inactive),36.9 µM (inactive),,,,> 100 µM (inactive),> 100,
CCC(=O)OC1CCn2c1nc1c2C(=O)C(C)=C(N2CC2)C1=O (stereo unspecified),,0.183 µM (active),0.045 µM (active),0.105 µM (active),0.064 µM (active),0.115 µM (active),0.143 µM (active),0.224 µM (active),0.103 µM (active),0.0711 µM (active),0.0526 µM (active),0.067 µM (active),0.0935 µM (active),0.59 µM (active),0.00743 µM (active),0.0254 µM (active),0.048 µM (active),0.0294 µM (active),0.0275,0.0455 µM (active)
CCOC(=O)/C(=C/c1ccc(Cl)cc1)N(CC)CC,> 100 µM (inactive),> 100 µM (inactive),> 100 µM (inactive),> 100 µM (inactive),> 100 µM (inactive),90.4 µM (inactive),> 100 µM (inactive),> 100 µM (inactive),> 100 µM (inactive),> 100 µM (inactive),> 100 µM (inactive),,> 100 µM (inactive),> 100 µM (inactive),,,,> 100 µM (inactive),> 100,
C=C(c1nc2ccc(Cl)cc2[nH]c1=O)C(O)c1ccc(C(O)C(=O)c2nc3ccc(Cl)cc3[nH]c2=O)cc1 (stereo unspecified),9.06 µM (inactive),> 100 µM (inactive),> 100 µM (inactive),> 100 µM (inactive),> 100 µM (inactive),> 100 µM (inactive),> 100 µM (inactive),> 100 µM (inactive),> 100 µM (inactive),> 100 µM (inactive),> 100 µM (inactive),> 100 µM (inactive),> 100 µM (inactive),4.28 µM (inactive),> 100 µM (inactive),> 100 µM (inactive),> 100 µM (inactive),> 95.1 µM (inactive),74.5,> 100 µM (inactive)

# From ChEMBL document CHEMBL1201862, “PubChem BioAssay data set” (2004)
